Laboratory results reported in US8563714B2, “Bridged spiro [2.4] heptane derivatives as ALX receptor and/or FPRL2 agonists” (Actelion Pharmaceuticals Ltd., priority 2009, dated 2013).

Key:
[1] = molecular target: T1, human FPRL2 (Homo sapiens, UniProt P25089); assay: Intracellular calcium measurements (FLIPR), agonistic activity in HEK293-hFPRL2-Gα16 cells; assay type: cell-based; conditions: Fluo-4 calcium FLIPR, normalized to GLY14-Humanin 100 nM
T1 construct: expressed in transfected cells; host or cells: HEK293 (HEK293-hFPRL2-Gα16)
T1 sequence (P25089 1-353): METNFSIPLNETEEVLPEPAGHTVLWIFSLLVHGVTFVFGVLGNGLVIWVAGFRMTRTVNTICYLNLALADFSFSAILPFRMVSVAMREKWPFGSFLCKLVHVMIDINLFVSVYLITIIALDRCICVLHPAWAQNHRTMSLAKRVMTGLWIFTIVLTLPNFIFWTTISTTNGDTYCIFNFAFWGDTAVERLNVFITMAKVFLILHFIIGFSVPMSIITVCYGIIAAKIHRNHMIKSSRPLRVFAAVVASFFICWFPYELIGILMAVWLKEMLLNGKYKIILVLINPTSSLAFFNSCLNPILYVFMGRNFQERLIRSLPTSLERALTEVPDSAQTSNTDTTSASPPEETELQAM
Procedure, shortened: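 Peak values after baseline subtraction are expressed relative to 100 nM Gly14-Humanin; compounds diluted in assay buffer from 10 mM DMSO stocks.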

[2] = molecular target: T2, human ALX receptor (Homo sapiens, UniProt P25090); assay: Intracellular calcium measurements (FLIPR), agonistic activity in HEK293-hALXR-Gα16 cells; assay type: cell-based; conditions: Fluo-4 calcium FLIPR, normalized to WKYMVm 10 nM
T2 construct: expressed in transfected cells; host or cells: HEK293 (HEK293-hALXR-Gα16)
T2 sequence (P25090 1-351): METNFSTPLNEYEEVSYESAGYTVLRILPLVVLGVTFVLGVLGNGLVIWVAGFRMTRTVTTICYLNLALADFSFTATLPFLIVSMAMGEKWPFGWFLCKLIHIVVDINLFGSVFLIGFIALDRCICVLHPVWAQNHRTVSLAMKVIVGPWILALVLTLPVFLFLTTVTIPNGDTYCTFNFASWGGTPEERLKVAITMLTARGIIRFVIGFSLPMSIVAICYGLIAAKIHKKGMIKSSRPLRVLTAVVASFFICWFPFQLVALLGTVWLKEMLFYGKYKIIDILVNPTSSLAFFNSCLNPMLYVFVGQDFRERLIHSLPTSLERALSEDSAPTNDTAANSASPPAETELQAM
Procedure, shortened: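 Agonist-induced calcium flux was recorded by FLIPR (488/540 nm) in HEK293-hALXR-Gα16 cells pre-loaded with Fluo-4 AM (1 μM, 60 min, 37°C). Peak signal above baseline, after subtracting buffer addition, was expressed relative to WKYMVm at 10 nM final.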

Row | EC50 [1] | EC50 [2] | Structure (SMILES)
1 | 7210 nM | 155 nM | COCCC(=O)N(C)C[C@H]1[C@H](C(=O)Nc2ccc(Br)cc2)[C@@H]2C=C[C@H]1C21CC1 (racemic) [Example 175, (5R*)—N^5-(4-Bromo-phenyl)-(6R*)-6-{[N-(3-methoxy-propionyl)-N-methyl-amino]-methyl}-(4S*,7R*)-[4,7-ethenylene-spiro[2.4]heptane]-5-carboxamide]
2 | 5580 nM | 4.8 nM | O=C(NCCN1CCNC1=O)[C@H]1[C@H](C(=O)Nc2ccc(Br)cc2)[C@@H]2C=C[C@H]1C21CC1 (racemic) [Example 29, (5R*)—N^5-(4-Bromophenyl)-(6R*)—N^6-(2-imidazolidin-2-on-1-yl-ethyl)-(4S*,7R*)-[4,7-ethenylene-spiro[2.4]heptane]-5,6-dicarboxamide]
3 | 181 nM | 153 nM | CC(=O)c1nc(CNC(=O)[C@H]2[C@H](C(=O)NCCCCN3CCCC3)[C@H]3C=C[C@@H]2C32CC2)co1 (racemic) [Example 235, (5R*)—N^5-(2-Acetyl-oxazol-4-yl-methyl)-(6R*)—N^6-(4-pyrrolidin-1-yl-butyl)-(4S*,7R*)-[4,7-ethenylene-spiro[2.4]heptane]-5,6-dicarboxamide]
4 | > 25000 nM | 114 nM | NC(=O)CCC(=O)NC[C@H]1[C@H](C(=O)Nc2ccc(Br)cc2)[C@@H]2C=C[C@H]1C21CC1 (racemic) [Example 170, (5R*)—N^5-(4-Bromo-phenyl)-(6R*)-6-{[(3-aminocarbonyl-propionyl)-amino]-methyl}-(4S*,7R*)-[4,7-ethenylene-spiro[2.4]heptane]-5-carboxamide]
5 | 150 nM | 9630 nM | CC(C)(C)c1csc(NC(=O)[C@H]2[C@H](C(=O)NCCCCN3CCCC3)[C@H]3C=C[C@@H]2C32CC2)n1 (racemic) [Example 152, (5R*)—N^5-(4-tert-Butyl-thiazol-2-yl)-(6R*)—N^6-(4-pyrrolidin-1-yl-butyl)-(4S*,7R*)-[4,7-ethenylene-spiro[2.4]heptane]-5,6-dicarboxamide]
6 | 61 nM | 38 nM | CC(=O)N1CCN(CCCCNC(=O)[C@H]2[C@H](C(=O)Nc3ccc(Br)cc3)[C@@H]3C=C[C@H]2C32CC2)CC1 [Example 217, (5R)—N^5-(4-Bromophenyl)-(6R)—N^6-(4-(4-acetyl-piperazin-1-yl)butyl)-(4S,7R)-[4,7-ethenylene-spiro[2.4]heptane]-5,6-dicarboxamide]
7 | 7040 nM | 181 nM | O=C(NCCN1CCNC1=O)[C@H]1[C@H](C(=O)NCc2ccc(Br)cc2)[C@@H]2C=C[C@H]1C21CC1 (racemic) [Example 275, (5R*)—N^5-(4-Bromophenyl-methyl)-(6R*)—N^6-((2-imidazolidin-2-on)-1-yl-ethyl)-(4S*,7R*)-[4,7-ethenylene-spiro[2.4]heptane]-5,6-dicarboxamide]
8 | 2050 nM | 265 nM | CN(C)CC(=O)NC[C@H]1[C@H](C(=O)Nc2ccc(Br)cc2)[C@@H]2C=C[C@H]1C21CC1 (racemic) [Example 181, (5R*)—N^5-(4-Bromo-phenyl)-(6R*)-6-[(2-(N,N-dimethyl-amino)-acetylamino)-methyl]-(4S*,7R*)-[4,7-ethenylene-spiro[2.4]heptane]-5-carboxamide]
9 | 1510 nM | 12 nM | O=C(NCCn1cncn1)[C@H]1[C@H](C(=O)Nc2ccc(Br)cc2)[C@@H]2C=C[C@H]1C21CC1 (racemic) [Example 49, (5R*)—N^5-(4-Bromophenyl)-(6R*)—N^6-(2-1H-[1,2,4]-triazol-1-yl-ethyl)-(4S*,7R*)-[4,7-ethenylene-spiro[2.4]heptane]-5,6-dicarboxamide]
10 | 30 nM | 3900 nM | Cc1ccc(CCNC(=O)C2C(C(=O)NCCCCN3CCCC3)C3C=CC2C32CC2)cc1 (stereo not drawn) [Example 381, (5R*)—N^5-(2-(4-Methylphenyl)ethyl)-(6R*)—N^6-(4-pyrrolidino-butyl)-(4S*,7R*)-[4,7-ethenylene-spiro[2.4]heptane]-5,6-dicarboxamide]
11 | 142 nM | 22 nM | O=C(NCCCCN1CCCC1)[C@H]1[C@H](C(=O)Nc2ncc(Br)s2)[C@@H]2CC[C@H]1C21CC1 [Example 238, (5R)—N^5-(5-Bromo-thiazol-2-yl)-(6R)—N^6-(4-pyrrolidin-1-yl-butyl)-(4S,7R)-[4,7-ethylene-spiro[2.4]heptane]-5,6-dicarboxamide]
12 | 204 nM | > 25000 nM | Cc1nc(NC(=O)[C@H]2[C@H](C(=O)NCCCCN3CCCC3)[C@H]3C=C[C@@H]2C32CC2)sc1C (racemic) [Example 369, (5R*)—N^5-(4,5-Dimethyl-thiazol-2-yl)-(6R*)—N^6-(4-pyrrolidino-butyl)-(4S*,7R*)-[4,7-ethenylene-spiro[2.4]heptane]-5,6-dicarboxamide]
13 | 358 nM | 173 nM | O=C(NCCCCN1CCCC1)[C@H]1[C@H](C(=O)NCc2ccco2)[C@@H]2C=C[C@H]1C21CC1 (racemic) [Example 131, (5R*)—N^5-(Furan-2-yl-methyl)-(6R*)—N^6-(4-pyrrolidin-1-yl-butyl)-(4S*,7R*)-[4,7-ethenylene-spiro[2.4]heptane]-5,6-dicarboxamide]
14 | > 25000 nM | 34 nM | CCCCCNC(=O)[C@H]1[C@H](C(=O)Nc2ccc(Br)cc2)[C@@H]2C=C[C@H]1C21CC1 (racemic) [Example 67, (5R*)—N^5-(4-Bromophenyl)-(6R*)—N^6-(pentyl)-(4S*,7R*)-[4,7-ethenylene-spiro[2.4]heptane]-5,6-dicarboxamide]
15 | 26 nM | 8270 nM | O=C(NCCCCN1CCCC1)[C@H]1[C@H](C(=O)NCCc2ccc(Cl)cc2)[C@@H]2C=C[C@H]1C21CC1 [Example 387, (5R)—N^5-(2-(4-Chlorophenyl)ethyl)-(6R)—N^6-(4-pyrrolidino-butyl)-(4S,7R)-[4,7-ethenylene-spiro[2.4]heptane]-5,6-dicarboxamide]
16 | 200 nM | 0.4 nM | O=C(NCCCCN1CCC1)[C@H]1[C@H](C(=O)Nc2ccc(Br)cc2)[C@@H]2C=C[C@H]1C21CC1 [Example 210, (5R)—N^5-(4-Bromophenyl)-(6R)—N^6-(4-(azetidin-1-yl)butyl)-(4S,7R)-[4,7-ethenylene-spiro[2.4]heptane]-5,6-dicarboxamide]
17 | 2370 nM | 59 nM | COc1ccc(NC(=O)[C@H]2[C@H](C(=O)NCCC(N)=O)[C@H]3CC[C@@H]2C32CC2)cc1 [Example 293, (5R)—N^5-(4-Methoxyphenyl)-(6R)—N^6-(3-amino-3-oxopropyl)-(4S,7R)-[4,7-ethylene-spiro[2.4]heptane]-5,6-dicarboxamide]
18 | 623 nM | > 25000 nM | Cn1c(CCNC(=O)[C@H]2[C@H](C(=O)NCCCCN3CCCC3)[C@H]3C=C[C@@H]2C32CC2)nc2ccccc21 (racemic) [Example 156, (5R*)—N^5-(2-(1-Methyl-1H-benzoimidazol-2-yl)-ethyl)-(6R*)—N^6-(4-pyrrolidin-1-yl-butyl)-(4S*,7R*)-[4,7-ethenylene-spiro[2.4]heptane]-5,6-dicarboxamide]
